Our source for the IC50 values is patent US20240059691A1 (KALVISTA PHARMACEUTICALS LIMITED, priority 2020, published 2024).

Common to all, as to format: biochemical
One assay has as its target Human Factor XIIa (Homo sapiens (Human), UniProt P00748). In words: Determination of FXIIa inhibition (fluorogenic substrate H-DPro-Phe-Arg-AFC, IC50 assay). The conditions noted are these: substrate H-DPro-Phe-Arg-AFC at Km, 25° C.; class scale A-G. In a few lines: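 IC50 derived from % remaining activity, taken as the linear fluorescence rate over a 5 min read at 25° C. Substrate H-DPro-Phe-Arg-AFC was used at its Km (Michaelis-Menten) with human FXIIa and serial compound dilutions, 25° C.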

The target in a further assay is Plasma Kallikrein (Homo sapiens (Human), UniProt P03952). As to the kind of experiment: Determination of related protease inhibition: Plasma Kallikrein (fluorogenic substrate at Km). The conditions noted are these: 25° C., read-out: IC50 (human PKal). In a few lines:
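Fluorogenic kinetic assay: human enzyme, substrate at Km, titrated inhibitor; 5 min read at 25 °C; IC50 from % of uninhibited rate.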

Another assay concerns the target KLK1 (Homo sapiens (Human), UniProt P06870). In words: Determination of related protease inhibition: KLK1 (fluorogenic substrate at Km). The settings on record: 25° C. On the procedure:
(§1) Determination of Related Protease Inhibition
(§2) In vitro inhibition of related proteases was determined using an ([…] assay based on standard literature methods (see e.g. Shori et al., Biochem. Pharmacol., 1992, 43, 1209; Bouckaert et al., European Journal of Medicinal Chemistry 110 (2016) 181). Human serine protease enzymes Plasma Kallikrein, KLK1, FXa, Plasmin, Thrombin and Trypsin were assayed for enzymatic activity using an appropriate fluorogenic substrate at Km concentration, FXIa at fixed substrate concentration of 100 μM, and various concentrations of the test compound. Protease activity was measured by monitoring the accumulation of liberated fluorescence from the substrate over […]. The linear rate of fluorescence increase per minute was expressed as percentage (%) activity. IC50 values were calculated as the concentration of inhibitor giving 50% inhibition of the uninhibited enzyme activity (100%).

A further assay has as its target FXa (Homo sapiens (Human), UniProt P00742). As to the kind of experiment: Determination of related protease inhibition: FXa (fluorogenic substrate at Km). The settings on record: 25° C. On the procedure:
as §1, §2

A further assay addresses Thrombin (Homo sapiens (Human), UniProt P00734). As to the kind of experiment: Determination of related protease inhibition: Thrombin (fluorogenic substrate at Km). The settings on record: 25° C. On the procedure:
as §1, §2

Human Factor XIIa, sequence (P00748 373-615): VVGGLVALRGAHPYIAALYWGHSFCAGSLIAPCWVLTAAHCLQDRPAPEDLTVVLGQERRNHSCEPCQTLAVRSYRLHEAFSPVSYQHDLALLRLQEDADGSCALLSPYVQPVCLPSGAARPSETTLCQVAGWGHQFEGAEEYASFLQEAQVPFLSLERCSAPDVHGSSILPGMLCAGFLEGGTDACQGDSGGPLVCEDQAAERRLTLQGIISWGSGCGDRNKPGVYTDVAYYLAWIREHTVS
KLK1, sequence (P06870 25-262): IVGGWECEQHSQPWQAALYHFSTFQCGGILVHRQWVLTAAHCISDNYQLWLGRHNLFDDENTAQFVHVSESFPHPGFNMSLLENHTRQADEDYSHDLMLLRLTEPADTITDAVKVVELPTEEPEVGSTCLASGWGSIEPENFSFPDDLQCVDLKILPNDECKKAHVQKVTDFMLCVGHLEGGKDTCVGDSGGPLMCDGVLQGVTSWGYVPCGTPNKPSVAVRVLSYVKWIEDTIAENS
FXa, sequence (P00742 235-488): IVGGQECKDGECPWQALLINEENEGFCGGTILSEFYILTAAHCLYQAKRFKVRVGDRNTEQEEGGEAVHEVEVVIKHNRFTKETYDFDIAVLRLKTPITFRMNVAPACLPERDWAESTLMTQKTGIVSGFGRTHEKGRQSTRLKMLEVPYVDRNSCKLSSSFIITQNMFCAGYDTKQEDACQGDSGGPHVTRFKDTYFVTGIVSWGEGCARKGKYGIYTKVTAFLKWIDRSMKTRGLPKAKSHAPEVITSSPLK
FXa, sequence (P00742 41-179 partner): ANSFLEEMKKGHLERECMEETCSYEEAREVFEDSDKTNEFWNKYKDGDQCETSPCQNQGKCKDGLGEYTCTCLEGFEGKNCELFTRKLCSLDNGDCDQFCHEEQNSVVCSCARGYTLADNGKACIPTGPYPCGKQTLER
Plasma Kallikrein, sequence (P03952 391-638): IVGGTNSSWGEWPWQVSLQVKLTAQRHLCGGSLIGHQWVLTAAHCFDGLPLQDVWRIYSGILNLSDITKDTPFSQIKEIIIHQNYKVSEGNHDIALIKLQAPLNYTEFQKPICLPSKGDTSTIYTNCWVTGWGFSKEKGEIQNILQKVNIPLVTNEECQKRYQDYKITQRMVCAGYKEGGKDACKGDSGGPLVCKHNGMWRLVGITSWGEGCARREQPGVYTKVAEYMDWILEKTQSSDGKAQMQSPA
Plasma Kallikrein, sequence (P03952 20-390 partner): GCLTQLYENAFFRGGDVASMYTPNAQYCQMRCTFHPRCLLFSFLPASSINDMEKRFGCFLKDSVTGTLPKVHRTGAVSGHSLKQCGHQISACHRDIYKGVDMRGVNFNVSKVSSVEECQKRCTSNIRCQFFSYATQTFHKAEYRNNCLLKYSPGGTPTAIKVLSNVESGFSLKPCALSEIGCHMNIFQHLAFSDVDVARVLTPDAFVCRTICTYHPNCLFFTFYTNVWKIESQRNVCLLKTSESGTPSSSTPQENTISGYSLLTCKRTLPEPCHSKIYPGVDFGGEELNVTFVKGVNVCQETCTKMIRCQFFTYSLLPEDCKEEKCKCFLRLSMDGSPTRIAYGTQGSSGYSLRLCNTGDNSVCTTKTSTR

On to `CC(C)N1CC2(CN(Cc3ccc(CNc4cccc5c(N)nccc45)c(F)c3)C2)C1` [Example 1036, N5-(2-fluoro-4-((6-isopropyl-2,6-diazaspiro[3.3]heptan-2-yl)methyl)benzyl)isoquinoline-1,5-diamine], for which the IC50 – broadly, the concentration at which inhibition is half-maximal – was 0.3 to 1 µM at Human Factor XIIa; 10 to 40 µM at Plasma Kallikrein; 10 to 40 µM against KLK1; above 40 µM against FXa; above 40 µM against Thrombin.
With `CN1C[C@@H](COc2cc(CNc3cccc4c(N)nccc34)ccn2)OC1=O` [Example 4279, (5S)-5-{[(4-{[(1-aminoisoquinolin-5-yl)amino]methyl}pyridin-2-yl)oxy]methyl}-3-methyl-1,3-oxazolidin-2-one], the IC50 against Human Factor XIIa is 3 to 10 µM; on Plasma Kallikrein, above 40 µM; at KLK1, 10 to 40 µM; on FXa it was above 40 µM; on Thrombin it was above 40 µM.
In the case of `CN1CCC(CNc2ccc(CNc3ccnc(N)c3)cn2)CC1` [Example 1096, N4-((6-(((1-methylpiperidin-4-yl)methyl)amino)pyridin-3-yl)methyl)pyridine-2,4-diamine], the IC50 is 3 to 10 µM against Human Factor XIIa; above 40 µM on Plasma Kallikrein; 10 to 40 µM at KLK1; 10 to 40 µM at FXa; 10 to 40 µM against Thrombin.
For `CN1CCN(CCc2ccc(CNc3cccc4c(N)nccc34)c(F)c2)CC1` [Example 2182, 5-N-({2-fluoro-4-[2-(4-methylpiperazin-1-yl)ethyl]phenyl}methyl)isoquinoline-1,5-diamine], the IC50 at Human Factor XIIa was 0.3 to 1 µM; on Plasma Kallikrein, above 40 µM; on KLK1, 10 to 40 µM; at FXa, above 40 µM; against Thrombin, above 40 µM.
For `CN1C[C@H](COc2cc(CNc3cccc4c(N)nccc34)ccn2)OC1=O` [Example 4280, (5R)-5-{[(4-{[(1-aminoisoquinolin-5-yl)amino]methyl}pyridin-2-yl)oxy]methyl}-3-methyl-1,3-oxazolidin-2-one], the IC50 on Human Factor XIIa is 10 to 40 µM; on Plasma Kallikrein, above 40 µM; against KLK1, 10 to 40 µM; against FXa, above 40 µM; on Thrombin, above 40 µM.
As to `Nc1nccc2c(NCc3ccc(OCC4CCn5ccnc5C4)nc3)cccc12` (single isomer, unassigned) [Example 1030, (S*)-N5-((6-((5,6,7,8-tetrahydroimidazo[1,2-a]pyridin-7-yl)methoxy)pyridin-3-yl)methyl)isoquinoline-1,5-diamine], the IC50 fell in the range of 0.3 to 1 µM against Human Factor XIIa; 10 to 40 µM on Plasma Kallikrein; 3 to 10 µM at KLK1; 10 to 40 µM against FXa; 10 to 40 µM against Thrombin.
`Cn1ccnc1CC(=O)NCc1ccc(CNc2cccc3c(N)nccc23)c(F)c1` [Example 2211, N-(4-(((1-aminoisoquinolin-5-yl)amino)methyl)-3-fluorobenzyl)-2-(1-methyl-1H-imidazol-2-yl)acetamide]: the IC50 on Human Factor XIIa was 10 to 40 µM; at Plasma Kallikrein, above 40 µM; on KLK1 it was 10 to 40 µM; at FXa it was above 40 µM; at Thrombin, above 40 µM.
On to `CC1c2nnc(C(F)(F)F)n2CCN1c1ccc(CNc2cccc3c(N)nccc23)cn1` (single isomer, unassigned) [Example 1295, (S*)-N5-((6-(8-methyl-3-(trifluoromethyl)-5,6-dihydro-[1,2,4]triazolo[4,3-a]pyrazin-7(8H)-yl)pyridin-3-yl)methyl)isoquinoline-1,5-diamine], for which the IC50 against Human Factor XIIa is 0.01 to 0.1 µM; at Plasma Kallikrein, 10 to 40 µM; against KLK1 it was 3 to 10 µM; at FXa it was above 40 µM.
In the case of `Nc1nccc2c(NCc3ccc(N4CCn5c(nnc5C(F)(F)F)C4)cc3)cccc12` [Example 1300, N5-(4-(3-(trifluoromethyl)-5,6-dihydro-[1,2,4]triazolo[4,3-a]pyrazin-7(8H)-yl)benzyl)isoquinoline-1,5-diamine], the IC50 at Human Factor XIIa is 0.1 to 0.3 µM; at Plasma Kallikrein it was above 40 µM; at KLK1, 3 to 10 µM; against FXa, above 40 µM.
Take `Cc1cc(N2CCn3c(nnc3C(F)(F)F)C2)nc(C)c1CNc1cccc2c(N)nccc12` [Example 9006, N5-((2,4-dimethyl-6-(3-(trifluoromethyl)-5,6-dihydro-[1,2,4]triazolo[4,3-a]pyrazin-7(8H)-yl)pyridin-3-yl)methyl)isoquinoline-1,5-diamine]: the IC50 against Human Factor XIIa is 0.1 to 0.3 µM; on Plasma Kallikrein it was above 40 µM; against KLK1 it was above 40 µM; against FXa it was above 40 µM.
`CC1CN(c2ccc(CNc3cccc4c(N)nccc34)cn2)Cc2nnc(C(F)(F)F)n21` (single isomer, unassigned) [Example 1297, (S*)-N5-((6-(5-methyl-3-(trifluoromethyl)-5,6-dihydro-[1,2,4]triazolo[4,3-a]pyrazin-7(8H)-yl)pyridin-3-yl)methyl)isoquinoline-1,5-diamine]: the IC50 against Human Factor XIIa is 1 to 3 µM; on Plasma Kallikrein, above 40 µM; at KLK1, 1 to 3 µM; against FXa it was above 40 µM.
Regarding `Nc1nccc2c(NCc3ccc(N4CCn5c(nnc5C(F)(F)F)C4)nc3C(F)(F)F)cccc12` [Example 1298, N5-((2-(trifluoromethyl)-6-(3-(trifluoromethyl)-5,6-dihydro-[1,2,4]triazolo[4,3-a]pyrazin-7(8H)-yl)pyridin-3-yl)methyl)isoquinoline-1,5-diamine], the IC50 on Human Factor XIIa is 1 to 3 µM; at Plasma Kallikrein, above 40 µM; at KLK1, 10 to 40 µM; at FXa, above 40 µM.
On to `Nc1nccc2c(NCc3cnc(N4CCn5c(nnc5C(F)(F)F)C4)cc3C(F)(F)F)cccc12` [Example 1301, N5-((4-(trifluoromethyl)-6-(3-(trifluoromethyl)-5,6-dihydro-[1,2,4]triazolo[4,3-a]pyrazin-7(8H)-yl)pyridin-3-yl)methyl)isoquinoline-1,5-diamine], for which the IC50 is 0.1 to 0.3 µM against Human Factor XIIa, above 40 µM on Plasma Kallikrein, 3 to 10 µM against KLK1 and above 40 µM on FXa.
In the case of `Nc1nccc2c(NCc3cnc(N4CCn5c(nnc5C(F)(F)F)C4)cc3Cl)cccc12` [Example 1299, N5-((4-Chloro-6-(3-(trifluoromethyl)-5,6-dihydro-[1,2,4]triazolo[4,3-a]pyrazin-7(8H)-yl)pyridin-3-yl)methyl)isoquinoline-1,5-diamine], the IC50 against Human Factor XIIa was 0.01 to 0.1 µM; at Plasma Kallikrein, above 40 µM; on KLK1, 3 to 10 µM; against FXa, above 40 µM.
`Cc1cc(CNc2cccc3c(N)nccc23)cnc1N1CCn2c(nnc2C(F)(F)F)C1` [Example 1302, N5-((5-methyl-6-(3-(trifluoromethyl)-5,6-dihydro-[1,2,4]triazolo[4,3-a]pyrazin-7(8H)-yl)pyridin-3-yl)methyl)isoquinoline-1,5-diamine]: the IC50 against Human Factor XIIa was 10 to 40 µM; on Plasma Kallikrein, 10 to 40 µM; against KLK1 it was 1 to 3 µM; on FXa, above 40 µM.
As to `CN1CCC(COc2cc(CNc3ccc4c(N)nccc4c3)cc(C(F)(F)F)n2)CC1` [Example 4265, N6-((2-((1-methylpiperidin-4-yl)methoxy)-6-(trifluoromethyl)pyridin-4-yl)methyl)isoquinoline-1,6-diamine], the IC50 against Human Factor XIIa lay in the range of 0.1 to 0.3 µM; against KLK1 it was 0.3 to 1 µM; against FXa, 1 to 3 µM; against Thrombin, 0.3 to 1 µM.
As for `Nc1nccc2c(NCc3ccc(N4CCn5c(nnc5C(F)(F)F)C4)cn3)cccc12` [Example 9001, N5-((5-(3-(trifluoromethyl)-5,6-dihydro-[1,2,4]triazolo[4,3-a]pyrazin-7(8H)-yl)pyridin-2-yl)methyl)isoquinoline-1,5-diamine], the IC50 against Human Factor XIIa is 0.1 to 0.3 µM; on Plasma Kallikrein, above 40 µM; on KLK1, 3 to 10 µM; against FXa it was above 40 µM.
In the case of `CC1CN(c2ccc(CNc3cccc4c(N)nccc34)cn2)Cc2nnc(C(F)(F)F)n21` (single isomer, unassigned) [Example 1296, (R*)-N5-((6-(5-methyl-3-(trifluoromethyl)-5,6-dihydro-[1,2,4]triazolo[4,3-a]pyrazin-7(8H)-yl)468yridine-3-yl)methyl)isoquinoline-1,5-diamine], the IC50 is 1 to 3 µM against Human Factor XIIa, 10 to 40 µM at Plasma Kallikrein, 3 to 10 µM against KLK1 and above 40 µM against FXa.
Regarding `CC1c2nnc(C(F)(F)F)n2CCN1c1ccc(CNc2cccc3c(N)nccc23)cn1` (single isomer, unassigned) [Example 1294, (R*)-N5-((6-(8-methyl-3-(trifluoromethyl)-5,6-dihydro-[1,2,4]triazolo[4,3-a]pyrazin-7(8H)-yl)pyridin-3-yl)methyl)isoquinoline-1,5-diamine], the IC50 at Human Factor XIIa was 10 to 40 µM; at Plasma Kallikrein, above 40 µM; against KLK1, 3 to 10 µM; on FXa, above 40 µM.
